Experimental findings from patent US20250195524A1, “PYRIMIDO-PYRIDAZINONE COMPOUND AS TOLL-LIKE RECEPTOR AGONIST” (SHANGHAI VISONPHARMA CO., LTD., priority 2022, published 2025) are described below.

In general, EC50 refers to the concentration giving half of the maximal effect. A lower EC50 goes with higher potency in that assay.

Assay [1] has as its target T1, human TLR8 (Homo sapiens, UniProt Q9NR97).
T1 construct: host or cells: HEK-Blue hTLR8 (HEK293-derived reporter cells)
T1 sequence (Q9NR97 27-1041): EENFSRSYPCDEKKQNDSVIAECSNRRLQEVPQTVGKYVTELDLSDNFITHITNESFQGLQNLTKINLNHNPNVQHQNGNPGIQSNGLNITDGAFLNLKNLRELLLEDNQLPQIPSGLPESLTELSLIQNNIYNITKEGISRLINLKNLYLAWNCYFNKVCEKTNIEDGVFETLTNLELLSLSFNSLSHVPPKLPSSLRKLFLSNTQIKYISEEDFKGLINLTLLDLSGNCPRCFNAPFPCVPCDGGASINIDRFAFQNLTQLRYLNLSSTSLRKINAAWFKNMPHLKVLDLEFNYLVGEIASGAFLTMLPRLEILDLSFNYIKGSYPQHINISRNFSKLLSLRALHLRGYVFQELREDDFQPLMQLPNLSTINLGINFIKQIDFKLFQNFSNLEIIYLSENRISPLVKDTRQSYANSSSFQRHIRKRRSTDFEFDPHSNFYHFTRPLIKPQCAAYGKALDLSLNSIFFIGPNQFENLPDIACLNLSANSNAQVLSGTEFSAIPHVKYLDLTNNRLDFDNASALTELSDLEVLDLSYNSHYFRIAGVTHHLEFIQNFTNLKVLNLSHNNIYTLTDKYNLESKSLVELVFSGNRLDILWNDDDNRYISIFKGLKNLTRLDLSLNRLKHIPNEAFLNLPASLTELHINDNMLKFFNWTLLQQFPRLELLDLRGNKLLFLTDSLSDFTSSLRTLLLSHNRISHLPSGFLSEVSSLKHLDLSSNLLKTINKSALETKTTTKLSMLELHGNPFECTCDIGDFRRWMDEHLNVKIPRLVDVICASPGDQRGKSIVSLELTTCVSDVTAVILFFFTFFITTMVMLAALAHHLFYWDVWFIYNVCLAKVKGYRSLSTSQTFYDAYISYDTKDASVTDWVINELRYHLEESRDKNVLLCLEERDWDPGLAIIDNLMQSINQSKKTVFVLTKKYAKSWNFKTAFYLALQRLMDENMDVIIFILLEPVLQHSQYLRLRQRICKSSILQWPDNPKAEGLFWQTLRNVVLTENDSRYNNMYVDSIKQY
The assay can be described thus: HEK-Blue hTLR8 SEAP reporter gene agonism assay. It counts as cell-based. The conditions noted are these: HEK-Blue hTLR8 cells, SEAP (Quanti-blue, 650 nm), 16-22 hours incubation. Here is the method: (§1) The agonistic activity of the compounds of the present invention on TLR7 or TLR8 was evaluated using HEK-Blue™ cells stably expressing human TLR7 or TLR8. And the agonistic activity was assayed using their ability to induce the SEAP reporter gene under the control of the IFN-β minimal promoter fused to five NF-κB and ap-1 binding sites, specifically as follows:
(§2) HEK-Blue™ hTLR7 (Invivogen, 80,000 cells per well) or HEK-Blue™ hTLR8 (Invivogen, 60,000 cells per well) was added to a 96-well cell culture plate, the compound to be tested is added whereafter, and the final concentration of the compound(s) to be tested in the medium ranged from 0.001 to 36 μM, then incubated for 16-22 hours. SEAP levels in the cell culture medium were detected using HEK-Blue assay reagent Quanti-blue (Invivogen) according to the manufacturer's instructions. Neo2 Multifunctional Enzyme Labeler (Bio-tek) was used to determine the light absorption at 650 nm. GraphPad Prism was utilized to calculate the EC50, which is the half effective concentration of the drug.
(In general: Reporter assays use an easily measured gene product as a stand-in for the process of interest.)

The target of assay [2] is T2, human TLR7 (Homo sapiens, UniProt Q9NYK1).
T2 construct: host or cells: HEK-Blue hTLR7 (HEK293-derived reporter cells)
T2 sequence (Q9NYK1 27-1049): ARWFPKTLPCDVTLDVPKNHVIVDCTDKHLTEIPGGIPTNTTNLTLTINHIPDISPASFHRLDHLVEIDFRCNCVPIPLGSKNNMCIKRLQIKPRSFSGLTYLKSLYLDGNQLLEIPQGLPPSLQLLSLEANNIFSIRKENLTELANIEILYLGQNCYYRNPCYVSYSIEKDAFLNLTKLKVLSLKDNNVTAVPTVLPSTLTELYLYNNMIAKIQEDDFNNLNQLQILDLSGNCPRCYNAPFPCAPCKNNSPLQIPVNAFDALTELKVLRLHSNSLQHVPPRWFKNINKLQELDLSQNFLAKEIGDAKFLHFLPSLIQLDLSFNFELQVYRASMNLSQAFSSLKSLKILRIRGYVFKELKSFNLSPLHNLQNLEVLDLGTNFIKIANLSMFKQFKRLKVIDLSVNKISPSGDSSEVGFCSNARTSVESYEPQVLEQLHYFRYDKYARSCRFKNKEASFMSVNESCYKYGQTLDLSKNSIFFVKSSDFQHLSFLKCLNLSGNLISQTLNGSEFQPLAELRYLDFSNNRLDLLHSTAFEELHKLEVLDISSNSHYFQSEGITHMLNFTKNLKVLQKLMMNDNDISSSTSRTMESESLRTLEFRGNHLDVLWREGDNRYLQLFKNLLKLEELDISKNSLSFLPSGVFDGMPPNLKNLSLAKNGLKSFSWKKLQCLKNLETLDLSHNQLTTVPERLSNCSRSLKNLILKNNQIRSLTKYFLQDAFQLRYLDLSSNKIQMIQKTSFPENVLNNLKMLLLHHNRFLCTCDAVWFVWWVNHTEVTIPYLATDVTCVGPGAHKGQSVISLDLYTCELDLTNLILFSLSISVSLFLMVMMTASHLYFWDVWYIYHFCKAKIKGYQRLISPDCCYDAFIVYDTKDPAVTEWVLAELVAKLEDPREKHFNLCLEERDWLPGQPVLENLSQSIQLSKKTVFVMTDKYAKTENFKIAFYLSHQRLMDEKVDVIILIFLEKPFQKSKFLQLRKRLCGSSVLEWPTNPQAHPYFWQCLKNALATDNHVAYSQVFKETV
Description: HEK-Blue hTLR7 SEAP reporter gene agonism assay. In kind it is cell-based. The following applies: HEK-Blue hTLR7 cells, SEAP (Quanti-blue, 650 nm), 16-22 hours incubation. Here is the method: as §1, §2

As for `CCCCNc1nc(N)nc2cnn(Cc3ccc(OCCNC)cc3)c(=O)c12` [Compound I-19, 2-amino-4-(butylamino)-6-(4-(2-(methylamino)ethoxy)benzyl)pyrimido[4,5-d]pyridazin-5(6H)-one], the concentration for a half-maximal effect (EC50) in assay [1] amounted to 149 nM; in assay [2], 922 nM. The like results for `CCC[C@@H](C)Nc1nc(N)nc2cnn(Cc3ccc(C(=O)N4CCNCC4)cc3OC)c(=O)c12` [Compound I-24, (R)-2-amino-6-(2-methoxy-4-(piperazine-1-carbonyl)benzyl)-4-(pentan-2-ylamino)pyrimido[4,5-d]pyridazin-5(6H)-one] were, in that order, 194 nM and 634 nM. Taken in the same sequence, the figures for `CCC[C@@H](C)Nc1nc(N)nc2cnn(Cc3ccc(CN4CCCC4)cc3OC)c(=O)c12` [Compound I-25, (R)-2-amino-6-(2-methoxy-4-(pyrrolidin-1-ylmethyl)benzyl)-4-(pentan-2-ylamino)pyrimido[4,5-d]pyridazin-5(6H)-one] were 147 nM and 631 nM. On to `CCC[C@@H](C)Nc1nc(N)nc2cnn(Cc3ccc(OCCNC)cc3)c(=O)c12` [Compound I-39, (R)-2-amino-6-(4-(2-(methylamino)ethoxy)benzyl)-4-(pentan-2-ylamino)pyrimido[4,5-d]pyridazin-5(6H)-one], for which the EC50 in assay [1] turned out to be 181 nM; in assay [2] it was 641 nM. Taken in the same sequence, the figures for `CCC[C@@H](C)Nc1nc(N)nc2cnn(Cc3ccc(CN4CCCC4)cc3)c(=O)c12` [Compound I-40, (R)-2-amino-4-(pentan-2-ylamino)-6-(4-(pyrrolidin-1-ylmethyl)benzyl)pyrimido[4,5-d]pyridazin-5(6H)-one] were 83 nM and 900 nM. The like results for `CCC[C@@H](C)Nc1nc(N)nc2cnn(Cc3ccc(OCCNC)nc3)c(=O)c12` [Compound I-47, (R)-2-amino-6-((6-(2-(methylamino)ethoxy)pyridin-3-yl)methyl)-4-(pentan-2-ylamino)pyrimido[4,5-d]pyridazin-5(6H)-one] were, in that order, 70 nM and 357 nM. Taken in the same sequence, the figures for `CCC[C@@H](C)Nc1nc(N)nc2cnn(Cc3ccc(CN4CCN(C)CC4)cc3)c(=O)c12` [Compound I-48, (R)-2-amino-6-(4-((4-methylpiperazin-1-yl)methyl)benzyl)-4-(pentan-2-ylamino)pyrimido[4,5-d]pyridazin-5(6H)-one] were 203 nM and 921 nM. As for `CCC[C@@H](C)Nc1nc(N)nc2cnn(Cc3ccc(CN(C)CCO)cc3)c(=O)c12` [Compound I-49], the figures for the EC50 in assay [1] and in assay [2] were 73 nM and 964 nM, respectively. Taken in the same sequence, the figures for `CCC[C@@H](C)Nc1nc(N)nc2cnn(Cc3ccc(CN4CCNCC4)cc3)c(=O)c12` [Compound I-50, (R)-2-amino-4-(pentan-2-ylamino)-6-(4-(piperazin-1-ylmethyl)benzyl)pyrimido[4,5-d]pyridazin-5(6H)-one] were 157 nM and 770 nM. Taken in the same sequence, the figures for `CCCN[C@H](C)c1ccc(Cn2ncc3nc(N)nc(N[C@H](C)CCC)c3c2=O)cc1` [Compound I-51, 2-amino-4-(((R)-pentan-2-yl)amino)-6-(4-((R)-1-(propylamino)ethyl)benzyl)pyrimido[4,5-d]pyridazine-5(6H)-one] were 141 nM and 892 nM. For the compound `CCC[C@@H](CO)Nc1nc(N)nc2cnn(Cc3ccc(CN4CCCC4)cc3)c(=O)c12` [Compound I-59, (S)-2-amino-4-((1-hydroxypentan-2-yl)amino)-6-(4-(pyrrolidin-1-ylmethyl)benzyl)pyrimido[4,5-d]pyridazin-5(6H)-one], the EC50 in assay [1] worked out at 9 nM.

As for `CCC[C@@H](C)Nc1nc(N)nc2cnn(Cc3ccc(C(=O)N4CCN(C)CC4)cc3)c(=O)c12` [Compound I-60, (R)-2-amino-6-(4-(4-methylpiperazine-1-carbonyl)benzyl)-4-(pentan-2-ylamino)pyrimido[4,5-d]pyridazin-5(6H)-one], the EC50 in assay [1] stood at 192 nM. On the same count and under the same terms, as for `CCCCNc1nc(N)nc2cnn(Cc3ccc(CN4CCCC4)cn3)c(=O)c12` [Compound I-62, 2-amino-4-(butylamino)-6-((5-(pyrrolidin-1-ylmethyl)pyridin-2-yl)methyl)pyrimido[4,5-d]pyridazin-5(6H)-one], the figure is 589 nM. The same measure, in the same setting: as for `CCC[C@@H](CC)Nc1nc(N)nc2cnn(Cc3ccc(CN4CCCC4)cc3)c(=O)c12` [Compound I-63, (R)-2-amino-4-(hexan-3-ylamino)-6-(4-(pyrrolidin-1-ylmethyl)benzyl)pyrimido[4,5-d]pyridazin-5(6H)-one], the figure is 534 nM; as for `CCC[C@@H](CO)Nc1nc(N)nc2cnn(Cc3ccc(CN4CCN(C)CC4)cc3)c(=O)c12` [Compound I-66, (S)-2-amino-4-((1-hydroxypentan-2-yl)amino)-6-(4-((4-methylpiperazin-1-yl)methyl)benzyl)pyrimido[4,5-d]pyridazin-5(6H)-one], 23 nM. The same measure, in the same setting: the same measure for `CCCC[C@@H](CO)Nc1nc(N)nc2cnn(Cc3ccc(CN4CCCC4)cc3)c(=O)c12` [Compound I-67, (S)-2-amino-4-((1-hydroxyhexan-2-yl)amino)-6-(4-(pyrrolidin-1-ylmethyl)benzyl)pyrimido[4,5-d]pyridazin-5(6H)-one]: 51 nM; for `CCC[C@@H](CO)Nc1nc(N)nc2cnn(Cc3ccc(C(=O)N4CCN(C)CC4)cc3)c(=O)c12` [Compound I-69, (S)-2-amino-4-((1-hydroxypentan-2-yl)amino)-6-(4-(4-methylpiperazine-1-carbonyl)benzyl)pyrimido[4,5-d]pyridazin-5(6H)-one]: 41 nM; for `CCC[C@@H](CO)Nc1nc(N)nc2cnn(Cc3ccc(C(=O)N4CC5CC(C4)N5)cc3)c(=O)c12` [Compound I-70, 6-(4-(3,6-diazabicyclo[3.1.1]heptane-3-carbonyl)benzyl)-2-amino-4-(((S)-1-hydroxypentan-2-yl)amino)pyrimido[4,5-d]pyridazin-5(6H)-one]: 20 nM.
